Reference: PubChem BioAssay (NCI)
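In this assay, cells in 96-well plates receive the compound at five concentrations for 48 hours. Endpoints are linearly interpolated between the surrounding concentrations. GI50 is the concentration that inhibits growth by half. TGI is the concentration that stops growth completely.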

Columns and labels:
Test in all cases: inhibition of tumour cell growth, NCI panel, 48 h
[1] = test system: 786-0 renal
[2] = test system: A549 NSCLC
[3] = test system: ACHN renal
[4] = test system: BT-549 breast
[5] = test system: CAKI-1 renal
[6] = test system: CCRF-CEM leukemia
[7] = test system: COLO 205 colon
[8] = test system: DU-145 prostate
[9] = test system: EKVX NSCLC
[10] = test system: HCC-2998 colon
[11] = test system: HCT-116 colon
[12] = test system: HCT-15 colon
[13] = test system: HL-60(TB) leukemia
[14] = test system: HOP-62 NSCLC
[15] = test system: HOP-92 NSCLC
[16] = test system: HS 578T breast
[17] = test system: HT29 colon
[18] = test system: IGROV1 ovarian
[19] = test system: K-562 leukemia
[20] = test system: KM12 colon
[21] = test system: LOX IMVI melanoma
[22] = test system: M14 melanoma
[23] = test system: MALME-3M melanoma
[24] = test system: MCF7 breast
[25] = test system: MDA-MB-231 breast
[26] = test system: MDA-MB-435
[27] = test system: MDA-MB-468 breast
[28] = test system: MOLT-4 leukemia
[29] = test system: NCI-H226 lung
[30] = test system: NCI-H23 lung
[31] = test system: NCI-H460 lung
[32] = test system: NCI-H522 lung
[33] = test system: NCI/ADR-RES ovarian
[34] = test system: OVCAR-3 ovarian
[35] = test system: OVCAR-4 ovarian
[36] = test system: OVCAR-5 ovarian
[37] = test system: OVCAR-8 ovarian
[38] = test system: PC-3 prostate
[39] = test system: RPMI-8226 leukemia
[40] = test system: RXF 393 renal
[41] = test system: SF-268 CNS
[42] = test system: SF-295 CNS
[43] = test system: SF-539 CNS
[44] = test system: SK-MEL-28 melanoma
[45] = test system: SK-MEL-5 melanoma
[46] = test system: SK-OV-3 ovarian
[47] = test system: SN12C renal
[48] = test system: SNB-19 CNS
[49] = test system: SNB-75 CNS
[50] = test system: SR leukemia
[51] = test system: SW-620 colon
[52] = test system: T-47D breast
[53] = test system: TK-10 renal
[54] = test system: U251 CNS
[55] = test system: UACC-257 melanoma
[56] = test system: UACC-62 melanoma
[57] = test system: UO-31 renal

In the case of Cc1cc(C(NC(=O)CCCCCNc2cccc3c2C(=O)N(C2CCC(=O)CC2=O)C3=O)c2cccc(N(C)C)c2)c(O)c2ncccc12 (centres undefined), the GI50 [1] was 1.36 µM, the TGI [1] was > 58.5 µM and the GI50 [2] was 2.12 µM. For the same compound, the TGI [2] was > 58.5 µM, the GI50 [3] was 1.92 µM and the TGI [3] was > 58.5 µM. The GI50 [4] was 0.0851 µM, the TGI [4] was 0.93 µM and the GI50 [5] was 1.14 µM. The TGI [5] was > 58.5 µM, the GI50 [6] was 0.0268 µM and the TGI [6] was 1.36 µM. For the same compound, the GI50 [7] was 1.08 µM, the TGI [7] was > 58.5 µM and the GI50 [8] was 3.03 µM. For the same compound, the TGI [8] was > 58.5 µM, the GI50 [9] was 1.36 µM and the TGI [9] was > 58.5 µM. It also gave a GI50 [10] of 0.941 µM, a TGI [10] of 3.76 µM and a GI50 [11] of 0.932 µM. The TGI [11] was > 58.5 µM, the GI50 [12] was 0.91 µM and the TGI [12] was > 58.5 µM. The GI50 [13] was 0.0199 µM, the TGI [13] was 1.67 µM and the GI50 [14] was 0.547 µM. The TGI [14] was > 12.6 µM, the GI50 [15] was 0.0365 µM and the TGI [15] was 0.524 µM. For the same compound, the GI50 [16] was 0.482 µM, the TGI [16] was > 58.5 µM and the GI50 [17] was 2.36 µM. The TGI [17] was > 58.5 µM, the GI50 [18] was 0.686 µM and the TGI [18] was 6.17 µM. The GI50 [19] was 0.824 µM, the TGI [19] was > 58.5 µM and the GI50 [20] was 1.73 µM. The TGI [20] was > 58.5 µM, the GI50 [21] was 1.2 µM and the TGI [21] was > 16.1 µM. It also gave a GI50 [22] of 0.585 µM, a TGI [22] of 3.78 µM and a GI50 [23] of 0.0975 µM. The TGI [23] was 0.957 µM, the GI50 [24] was 0.982 µM and the TGI [24] was > 58.5 µM. It also gave a GI50 [25] of 0.0222 µM, a TGI [25] of 0.136 µM and a GI50 [26] of 2.22 µM. The TGI [26] was > 58.5 µM, the GI50 [27] was 0.0278 µM and the TGI [27] was 0.462 µM. The GI50 [28] was 0.0346 µM, the TGI [28] was > 58.5 µM and the GI50 [29] was 0.782 µM. For the same compound, the TGI [29] was > 15.8 µM, the GI50 [30] was 1.54 µM and the TGI [30] was > 58.5 µM. The GI50 [31] was 1.14 µM, the TGI [31] was > 58.5 µM and the GI50 [32] was 1.8 µM. The TGI [32] was > 58.5 µM, the GI50 [33] was 5.44 µM and the TGI [33] was > 58.5 µM. The GI50 [34] was 1.23 µM, the TGI [34] was > 58.5 µM and the GI50 [35] was 1.48 µM. For the same compound, the TGI [35] was > 58.5 µM, the GI50 [36] was 1.9 µM and the TGI [36] was > 58.5 µM. For the same compound, the GI50 [37] was 0.555 µM, the TGI [37] was > 58.5 µM and the GI50 [38] was 0.103 µM. For the same compound, the TGI [38] was > 58.5 µM, the GI50 [39] was 1.58 µM and the TGI [39] was > 58.5 µM. The GI50 [40] was 1.55 µM, the TGI [40] was > 58.5 µM and the GI50 [41] was 1.41 µM. The TGI [41] was > 58.5 µM, the GI50 [42] was 1.53 µM and the TGI [42] was > 58.5 µM. The GI50 [43] was 1.83 µM, the TGI [43] was 30.8 µM and the GI50 [44] was 2.06 µM. The TGI [44] was > 58.5 µM, the GI50 [45] was 0.822 µM and the TGI [45] was 1.83 µM. It also gave a GI50 [46] of 1.53 µM, a TGI [46] of 5.02 µM and a GI50 [47] of 1.21 µM. For the same compound, the TGI [47] was > 58.5 µM, the GI50 [48] was 1.56 µM and the TGI [48] was > 58.5 µM. The GI50 [49] was 0.766 µM, the TGI [49] was > 58.5 µM and the GI50 [50] was 0.922 µM. For the same compound, the TGI [50] was > 58.5 µM, the GI50 [51] was 0.564 µM and the TGI [51] was > 58.5 µM. For the same compound, the GI50 [52] was 0.739 µM, the TGI [52] was > 58.5 µM and the GI50 [53] was 2.67 µM. For the same compound, the TGI [53] was > 58.5 µM, the GI50 [54] was 1.39 µM and the TGI [54] was > 58.5 µM. The GI50 [55] was 2.45 µM, the TGI [55] was > 58.5 µM and the GI50 [56] was 1.33 µM. For the same compound, the TGI [56] was 4.63 µM, the GI50 [57] was 0.745 µM and the TGI [57] was > 25.4 µM.
